A word on the GI50: it is the concentration that inhibits growth by half.

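Grown in 96-well plates, cells were treated for 48 hours with each compound at five concentrations. Insufficient inhibition: endpoint recorded as highest concentration tested. Here, GI50 denotes the concentration required for 50% inhibition of growth.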 The source made the active and inactive calls. Cut-off read from the data, not from the text of the source: active = GI50 up to about 1.1 µM and inactive = higher. A value given as a limit tells only on which side of the number the result lay.

Results on eight compounds are retold here after ChEMBL document CHEMBL1201862, “PubChem BioAssay data set” (2004).

Test systems include A549; CCRF-CEM; HCT-15; HL-60; M14; MOLT-4; NCI-H226; NCI-H23; NCI/ADR-RES; OVCAR-3; PC-3; SF-268; SK-MEL-28; SK-MEL-2; SK-MEL-5; SNB-19; SW-620; TK-10; MDA-N.
What all share (assay): DTP human tumour cell line panel, 48 h

`CCCCCCCCCCCCCCCCCCNc1nc(=O)n(C2CC(OP(=O)(O)OCC3OC(n4cc(F)c(=O)[nH]c4=O)CC3O)C(CO)O2)cc1F` (stereo unspecified): the GI50 with A549 is 7.24 µM (inactive); with CCRF-CEM, 12.9 µM (inactive); in the assay on HCT-15, 37.5 µM; with HL-60 it was 5.18 µM (inactive); with M14, 19.5 µM (inactive); with MOLT-4 it was 14.7 µM (inactive). The GI50 is 98.4 µM (inactive) with NCI-H226; 38.8 µM (inactive) in the assay on NCI-H23; 30.3 µM (inactive) in the assay with NCI/ADR-RES; 29 µM (inactive) with OVCAR-3; 22.6 µM (inactive) in the assay with PC-3; 12.4 µM (inactive) with SF-268. For the same compound, the GI50 in the assay on SK-MEL-28 was 27.1 µM (inactive); with SK-MEL-2, 27.5 µM (inactive); in the assay with SK-MEL-5 it was 34.7 µM (inactive); in the assay on SNB-19, 12.1 µM (inactive); with SW-620, 18.8 µM (inactive); in the assay on TK-10 it was 70.5 µM (inactive).
With `N#Cc1c(-c2ccc(Cl)cc2)[nH]c(=O)n(C2OC(CO)C(O)C(O)C2O)c1=O` (stereo unspecified), the GI50 in the assay on A549 is > 100 µM (inactive); in the assay on CCRF-CEM, > 100 µM (inactive); in the assay on HCT-15 it was greater than 100 µM; in the assay with HL-60, > 100 µM (inactive); with M14 it was > 100 µM (inactive); in the assay on MOLT-4 it was > 100 µM (inactive). Also, the GI50 with NCI-H226 is 46 µM (inactive); in the assay on NCI-H23, > 100 µM (inactive); in the assay on NCI/ADR-RES, > 100 µM (inactive); in the assay on OVCAR-3 it was > 100 µM (inactive); with PC-3, > 100 µM (inactive); in the assay with SF-268, > 100 µM (inactive). Moreover, the GI50 in the assay with SK-MEL-28, in the assay with SK-MEL-2, in the assay with SK-MEL-5, in the assay on SNB-19, in the assay on SW-620 and in the assay with TK-10 was > 100 µM (inactive) in each case.
Consider `CCSc1[nH]c(/N=C(/NC(=O)c2ccccc2)NC(C)C)c(C(N)=O)c1C(N)=O`, for which the GI50 is > 10 µM (inactive) with A549; > 10 µM (inactive) in the assay on CCRF-CEM; greater than 10 µM with HCT-15; > 10 µM (inactive) with HL-60; > 10 µM (inactive) in the assay on M14; > 10 µM (inactive) with MDA-N. Further, the GI50 in the assay on MOLT-4, in the assay on NCI-H23, in the assay with PC-3, in the assay on SF-268, in the assay on SK-MEL-28 and with SK-MEL-5 was > 10 µM (inactive) throughout. Moreover, the GI50 in the assay with SW-620 and in the assay with TK-10 was > 10 µM (inactive) throughout.
For `C[C@H]1CN[C@@H]2[C@@H](C)[C@H]3[C@@H](C[C@H]4[C@@H]5CC[C@H]6C[C@@H](N)CC[C@]6(C)[C@H]5CC[C@]34C)O[C@@]2(O)C1`, the GI50 in the assay with A549 is 3.8 µM (inactive); in the assay with CCRF-CEM it was 0.561 µM (active); with HCT-15 it was 1.38 µM; in the assay on HL-60, 1.64 µM (inactive); in the assay with M14 it was 2.04 µM (inactive); in the assay on MOLT-4, 1.69 µM (inactive). Besides, the GI50 was 2.38 µM (inactive) with NCI-H226; 12.9 µM (inactive) in the assay with NCI-H23; 2.54 µM (inactive) with NCI/ADR-RES; 2.03 µM (inactive) in the assay with OVCAR-3; 2.79 µM (inactive) in the assay on PC-3; 1.5 µM (inactive) in the assay on SF-268. The GI50 was 1.77 µM (inactive) with SK-MEL-28; 3.06 µM (inactive) in the assay on SK-MEL-2; 3.04 µM (inactive) with SK-MEL-5; 2.07 µM (inactive) in the assay with SNB-19; 2.25 µM (inactive) in the assay on SW-620; 2.53 µM (inactive) in the assay on TK-10.
Consider `COC(=O)C(C)(C)OCc1ccc(C2NC(=O)N(c3cccc(Cl)c3)C(=O)N2c2cccc(Cl)c2)cc1` (stereo unspecified), for which the GI50 in the assay with A549 is 35.2 µM (inactive); in the assay on CCRF-CEM, 10.6 µM (inactive); in the assay with HCT-15, 19.6 µM; in the assay with M14, 65.3 µM (inactive); in the assay on MDA-N, 55.8 µM (inactive); with MOLT-4 it was 8.07 µM (inactive). Moreover, the GI50 in the assay with NCI-H23 was 1.26 µM (inactive); with NCI/ADR-RES it was 17.1 µM (inactive); in the assay on OVCAR-3 it was 56.2 µM (inactive); in the assay with PC-3 it was 20.2 µM (inactive); with SF-268, 26.1 µM (inactive); in the assay with SK-MEL-28, > 100 µM (inactive). The GI50 was 52.8 µM (inactive) in the assay with SK-MEL-2, 10.7 µM (inactive) in the assay on SK-MEL-5, > 100 µM (inactive) with SNB-19 and 75.5 µM (inactive) in the assay with SW-620.
As to `CC(=O)/N=C1\NC(=O)/C(=C/c2ccc(/C=C3/C(=O)N/C(=N\C(C)=O)N3C)cc2)N1C`, the GI50 in the assay with A549 is > 100 µM (inactive); in the assay with HCT-15 it was greater than 100 µM; with HL-60, 47.3 µM (inactive); in the assay on M14, > 100 µM (inactive); with MDA-N, > 100 µM (inactive); in the assay on MOLT-4, > 100 µM (inactive). The GI50 with NCI-H226, with NCI-H23, in the assay with NCI/ADR-RES, with OVCAR-3, in the assay on SF-268 and in the assay with SK-MEL-28 was > 100 µM (inactive) throughout. Also, the GI50 in the assay on SK-MEL-2, with SK-MEL-5, with SNB-19, in the assay with SW-620 and in the assay with TK-10 was > 100 µM (inactive) throughout.
For the compound `CCc1n[nH]c(=O)n1-c1ccc2ccccc2c1`, the GI50 is > 100 µM (inactive) with A549; > 100 µM (inactive) with CCRF-CEM; greater than 100 µM in the assay with HCT-15; > 100 µM (inactive) in the assay with M14; > 100 µM (inactive) in the assay with MDA-N; > 100 µM (inactive) in the assay on MOLT-4. The GI50 in the assay on NCI-H226, in the assay on NCI-H23, in the assay on NCI/ADR-RES, in the assay with OVCAR-3, with SF-268 and with SK-MEL-28 was > 100 µM (inactive) in each case. The GI50 in the assay with SK-MEL-2, with SK-MEL-5, with SNB-19, with SW-620 and with TK-10 was > 100 µM (inactive) each time.
`CN(C)CCCN1c2ccc(O)cc2Sc2ccc(Cl)cc21` [7-HYDROXYCHLORPROMAZINE]: the GI50 was 13.5 µM (inactive) in the assay with A549; 0.859 µM (active) in the assay on CCRF-CEM; 14.2 µM in the assay with HCT-15; 13.9 µM (inactive) with HL-60; 5.97 µM (inactive) in the assay on M14; 3.18 µM (inactive) with MOLT-4. For the same compound, the GI50 with NCI-H226 was 11.3 µM (inactive); in the assay on NCI-H23, 17.7 µM (inactive); in the assay on NCI/ADR-RES, 14.7 µM (inactive); with OVCAR-3, 11.8 µM (inactive); with PC-3, 5.33 µM (inactive); in the assay on SF-268, 6.34 µM (inactive). The GI50 in the assay with SK-MEL-28 was 11.1 µM (inactive); with SK-MEL-2, 6.04 µM (inactive); in the assay on SK-MEL-5, 13.8 µM (inactive); in the assay on SNB-19 it was 13.3 µM (inactive); in the assay on SW-620, 17.5 µM (inactive); in the assay on TK-10, 12.3 µM (inactive).
